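Protocol summary: plate cells (96-well), add compound at 5 concentrations, incubate 48 h, interpolate endpoints linearly. GI50: concentration for 50% inhibition of growth. TGI is the concentration that stops growth completely.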
Legend:
Assay in all cases: growth of human tumour cells (NCI), 48 h
NCI-H226 lung = system: NCI-H226 lung
NCI-H23 lung = system: NCI-H23 lung
NCI-H460 lung = system: NCI-H460 lung
NCI/ADR-RES ovarian = system: NCI/ADR-RES ovarian
OVCAR-3 ovarian = system: OVCAR-3 ovarian
OVCAR-4 ovarian = system: OVCAR-4 ovarian
OVCAR-5 ovarian = system: OVCAR-5 ovarian
OVCAR-8 ovarian = system: OVCAR-8 ovarian
PC-3 prostate = system: PC-3 prostate
RXF 393 renal = system: RXF 393 renal
SF-268 CNS = system: SF-268 CNS
SF-295 CNS = system: SF-295 CNS
SF-539 CNS = system: SF-539 CNS
SK-MEL-2 melanoma = system: SK-MEL-2 melanoma
SK-MEL-28 melanoma = system: SK-MEL-28 melanoma
SK-MEL-5 melanoma = system: SK-MEL-5 melanoma
SK-OV-3 ovarian = system: SK-OV-3 ovarian
SN12C renal = system: SN12C renal
SNB-19 CNS = system: SNB-19 CNS
SNB-75 CNS = system: SNB-75 CNS
SR leukemia = system: SR leukemia
SW-620 colon = system: SW-620 colon
T-47D breast = system: T-47D breast
TK-10 renal = system: TK-10 renal
U251 CNS = system: U251 CNS
UACC-257 melanoma = system: UACC-257 melanoma
UO-31 renal = system: UO-31 renal

O=C(O)C1(Cc2cccc(Nc3nccs3)n2)CCC(Oc2cccc(Cl)c2F)CC1 (centres undefined)
GI50 (NCI-H226 lung): 11.6 µM
TGI (NCI-H226 lung): 39.6 µM
GI50 (NCI-H23 lung): 12.9 µM
TGI (NCI-H23 lung): 34.5 µM
GI50 (NCI-H460 lung): 0.344 µM
TGI (NCI-H460 lung): 19.6 µM
GI50 (NCI/ADR-RES ovarian): 3.48 µM
TGI (NCI/ADR-RES ovarian): > 65.4 µM
GI50 (OVCAR-3 ovarian): 13.3 µM
TGI (OVCAR-3 ovarian): 36.4 µM
GI50 (OVCAR-4 ovarian): 25.8 µM
TGI (OVCAR-4 ovarian): > 100 µM
GI50 (OVCAR-5 ovarian): 13.8 µM
TGI (OVCAR-5 ovarian): > 81.7 µM
GI50 (OVCAR-8 ovarian): 18.9 µM
TGI (OVCAR-8 ovarian): > 100 µM
GI50 (PC-3 prostate): 17.4 µM
TGI (PC-3 prostate): 84.3 µM
GI50 (RXF 393 renal): 0.0488 µM
TGI (RXF 393 renal): 12.8 µM
GI50 (SF-268 CNS): 25.1 µM
TGI (SF-268 CNS): > 100 µM
GI50 (SF-295 CNS): 1.31 µM
TGI (SF-295 CNS): 27.9 µM
GI50 (SF-539 CNS): 6.73 µM
TGI (SF-539 CNS): 24.4 µM
GI50 (SK-MEL-2 melanoma): 17.6 µM
TGI (SK-MEL-2 melanoma): 36.4 µM
GI50 (SK-MEL-28 melanoma): 21.2 µM
TGI (SK-MEL-28 melanoma): > 65.2 µM
GI50 (SK-MEL-5 melanoma): 14.8 µM
TGI (SK-MEL-5 melanoma): 28.7 µM
GI50 (SK-OV-3 ovarian): 12.8 µM
TGI (SK-OV-3 ovarian): 46 µM
GI50 (SN12C renal): 11.4 µM
TGI (SN12C renal): 46.6 µM
GI50 (SNB-19 CNS): 20 µM
TGI (SNB-19 CNS): 73.9 µM
GI50 (SNB-75 CNS): 11 µM
TGI (SNB-75 CNS): 62.2 µM
GI50 (SR leukemia): 0.419 µM
TGI (SR leukemia): 50.3 µM
GI50 (SW-620 colon): 4.31 µM
TGI (SW-620 colon): > 58.9 µM
GI50 (T-47D breast): 15.8 µM
TGI (T-47D breast): > 100 µM
GI50 (TK-10 renal): 18.8 µM
TGI (TK-10 renal): 61.9 µM
GI50 (U251 CNS): 24.4 µM
TGI (U251 CNS): > 54.8 µM
GI50 (UACC-257 melanoma): 31.6 µM
TGI (UACC-257 melanoma): > 81.1 µM
GI50 (UO-31 renal): 16.3 µM
TGI (UO-31 renal): 79.8 µM

Source: PubChem BioAssay (NCI)
